Earlier results in patent US6808938B2, “Method and apparatus for assaying a drug candidate to estimate a pharmacokinetic parameter associated therewith” (Biacore AB, priority 1999, dated 2004).

Details: stated to explain lack of correlation at 500 μM in FIG. 7

CN1C(C(=O)Nc2ccccn2)=C(O)c2ccccc2S1(=O)=O [Piroxicam]
Solubility: < 500 µM
